Type in all cases: cell-based
For assay [1], the target named is T1, Bone morphogenetic protein 1 (Homo sapiens, UniProt P13497).
T1 sequence (P13497 whole entry): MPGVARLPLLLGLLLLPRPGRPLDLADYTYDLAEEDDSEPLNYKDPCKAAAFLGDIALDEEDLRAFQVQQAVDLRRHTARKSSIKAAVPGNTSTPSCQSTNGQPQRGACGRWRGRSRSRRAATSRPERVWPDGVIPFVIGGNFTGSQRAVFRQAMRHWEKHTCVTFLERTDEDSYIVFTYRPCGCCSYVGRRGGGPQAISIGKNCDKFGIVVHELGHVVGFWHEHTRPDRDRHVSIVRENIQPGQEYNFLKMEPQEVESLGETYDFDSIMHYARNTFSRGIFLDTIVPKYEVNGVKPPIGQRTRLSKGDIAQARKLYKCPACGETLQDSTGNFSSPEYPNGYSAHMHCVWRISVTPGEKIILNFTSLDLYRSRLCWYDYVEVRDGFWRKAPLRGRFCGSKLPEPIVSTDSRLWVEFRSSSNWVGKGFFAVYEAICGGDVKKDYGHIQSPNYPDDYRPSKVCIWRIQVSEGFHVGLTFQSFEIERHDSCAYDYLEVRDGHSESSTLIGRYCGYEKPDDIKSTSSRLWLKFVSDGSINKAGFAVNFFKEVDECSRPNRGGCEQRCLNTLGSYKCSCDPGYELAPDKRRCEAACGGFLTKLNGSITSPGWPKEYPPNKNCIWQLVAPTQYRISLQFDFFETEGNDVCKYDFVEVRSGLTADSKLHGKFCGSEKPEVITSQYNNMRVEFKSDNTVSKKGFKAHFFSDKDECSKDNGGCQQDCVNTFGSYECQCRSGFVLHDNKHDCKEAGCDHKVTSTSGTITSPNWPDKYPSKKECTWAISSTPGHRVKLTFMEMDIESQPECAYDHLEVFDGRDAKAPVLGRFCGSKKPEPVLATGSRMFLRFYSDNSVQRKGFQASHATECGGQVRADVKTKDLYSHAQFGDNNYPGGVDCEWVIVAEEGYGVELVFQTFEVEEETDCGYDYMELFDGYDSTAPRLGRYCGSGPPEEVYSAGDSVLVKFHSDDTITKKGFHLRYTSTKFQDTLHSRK
Description: Inhibition of C-terminal FLAG-6x-His epitope tagged and N-terminal human RAGE signal sequence tagged human BMP1 (23 to 721 amino acids) expressed in CHO-E1 cells pre-incubated for 10 mins before promyostatin peptide substrate addition and measured after 60 mins using 0.5 nM BMP1 by FRET based assay.

The target in assay [2] is T1, Bone morphogenetic protein 1. Description: Inhibition of C-terminal FLAG-6x-His epitope tagged and N-terminal human RAGE signal sequence tagged human BMP1 (23 to 721 amino acids) expressed in CHO-E1 cells pre-incubated for 10 mins before promyostatin peptide substrate addition and measured after 30 mins using 50 nM BMP1 by FRET based assay.
Another assay addresses Tolloid-like protein 1 (Homo sapiens, UniProt O43897, I156V/N221S/V284A). Briefly: Inhibition of recombinant human TLL1 I156V/N221S/V284A mutant expressed in CHOE1A cells pre-incubated for 10 mins before promyostatin peptide substrate addition and measured after 60 mins by FRET based assay.
The next assay concerns the target T2, Tolloid-like protein 2 (Homo sapiens, UniProt Q9Y6L7).
T2 sequence (Q9Y6L7 whole entry): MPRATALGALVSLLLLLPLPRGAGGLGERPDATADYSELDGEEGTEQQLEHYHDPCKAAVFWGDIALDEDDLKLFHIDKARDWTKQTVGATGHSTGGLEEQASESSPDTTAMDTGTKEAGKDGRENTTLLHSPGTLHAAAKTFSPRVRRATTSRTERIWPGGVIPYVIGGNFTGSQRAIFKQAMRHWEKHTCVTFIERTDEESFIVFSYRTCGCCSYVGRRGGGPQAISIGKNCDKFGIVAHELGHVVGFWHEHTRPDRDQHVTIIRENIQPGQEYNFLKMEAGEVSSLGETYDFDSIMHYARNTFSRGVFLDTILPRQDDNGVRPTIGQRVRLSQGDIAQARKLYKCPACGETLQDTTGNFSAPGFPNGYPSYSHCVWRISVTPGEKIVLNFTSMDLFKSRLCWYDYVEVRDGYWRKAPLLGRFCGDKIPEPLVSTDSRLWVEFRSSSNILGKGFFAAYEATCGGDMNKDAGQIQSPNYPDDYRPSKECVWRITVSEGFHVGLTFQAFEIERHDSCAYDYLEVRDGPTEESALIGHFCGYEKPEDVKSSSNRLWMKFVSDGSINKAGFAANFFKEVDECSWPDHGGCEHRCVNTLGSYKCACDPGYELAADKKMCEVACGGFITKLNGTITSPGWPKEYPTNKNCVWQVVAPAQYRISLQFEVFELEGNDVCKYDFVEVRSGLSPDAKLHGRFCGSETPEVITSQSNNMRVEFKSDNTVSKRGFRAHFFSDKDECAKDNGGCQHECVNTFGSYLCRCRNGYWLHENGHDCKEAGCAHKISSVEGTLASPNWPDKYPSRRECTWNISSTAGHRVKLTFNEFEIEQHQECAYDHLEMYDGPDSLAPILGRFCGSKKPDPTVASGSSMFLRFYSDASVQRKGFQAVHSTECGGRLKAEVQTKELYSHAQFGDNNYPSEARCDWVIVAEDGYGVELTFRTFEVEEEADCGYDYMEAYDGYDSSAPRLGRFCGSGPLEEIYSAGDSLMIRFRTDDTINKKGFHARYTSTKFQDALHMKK
Description: Inhibition of C-terminal Avi-6x-His epitope tagged and N-terminal human RAGE signal sequence tagged recombinant human TLL2 (26 to 1015 amino acids) expressed in CHOE1A cells incubated for 60 mins with promyostatin peptide substrate by FRET based assay.

Each structure is given as a SMILES string. A value given as a limit tells only on which side of the number the result lay.

Tolloid-like protein 1, sequence (O43897 148-1013 I156V/N221S/V284A limits assumed): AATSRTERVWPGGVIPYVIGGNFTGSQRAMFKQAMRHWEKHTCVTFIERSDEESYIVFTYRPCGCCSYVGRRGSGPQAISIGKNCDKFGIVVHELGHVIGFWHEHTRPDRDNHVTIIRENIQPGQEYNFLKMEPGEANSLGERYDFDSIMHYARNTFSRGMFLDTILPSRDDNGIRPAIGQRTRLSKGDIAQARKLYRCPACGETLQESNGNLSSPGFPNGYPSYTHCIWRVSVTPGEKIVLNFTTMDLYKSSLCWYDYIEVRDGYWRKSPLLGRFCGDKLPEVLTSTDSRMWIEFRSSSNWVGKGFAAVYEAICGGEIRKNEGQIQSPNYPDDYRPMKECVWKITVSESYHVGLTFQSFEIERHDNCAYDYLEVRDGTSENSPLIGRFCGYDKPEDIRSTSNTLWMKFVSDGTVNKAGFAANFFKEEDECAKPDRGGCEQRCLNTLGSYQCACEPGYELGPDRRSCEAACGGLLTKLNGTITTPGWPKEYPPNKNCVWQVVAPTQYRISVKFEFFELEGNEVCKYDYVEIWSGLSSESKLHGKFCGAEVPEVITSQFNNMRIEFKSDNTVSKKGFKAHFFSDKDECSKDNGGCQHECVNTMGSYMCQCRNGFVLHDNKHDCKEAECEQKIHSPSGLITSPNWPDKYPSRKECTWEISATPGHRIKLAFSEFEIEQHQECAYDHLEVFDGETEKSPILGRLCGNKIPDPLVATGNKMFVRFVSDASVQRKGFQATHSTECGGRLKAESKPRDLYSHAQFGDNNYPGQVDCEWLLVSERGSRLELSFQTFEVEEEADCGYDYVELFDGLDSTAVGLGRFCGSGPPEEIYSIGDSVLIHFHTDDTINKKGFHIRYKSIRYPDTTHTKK

Take `CCCCC[C@@H](C(=O)NCNC(=O)c1ccc(-c2cc(OCC)cc(P(=O)(O)O)c2)o1)[C@@H](CC)N(O)C=O.NC(CO)(CO)CO`: the pIC50 in assay [1] is on record as > 6.9.
For the molecule `CCCCC[C@H](CN(O)C=O)C(=O)NCNC(=O)c1ccc(-c2cccc(OCCN3CCCC3)c2)o1`, the IC50 in assay [1] is < 126 nM; in assay [2], < 200 nM; at Tolloid-like protein 1 it was < 398 nM; at Tolloid-like protein 2, < 794 nM.
The matching figures for `CCCCC[C@H](CN(O)C=O)C(=O)NCNC(=O)c1ccc(-c2cccc(OC)c2)o1`: < 126 nM, < 200 nM, < 398 nM and < 794 nM.
On to `O=CN(O)C[C@@H](CCCc1ccccc1)C(=O)NCNC(=O)c1ccc(-c2ccccc2)o1`, for which the 50% inhibitory concentration (IC50) was < 126 nM in assay [1], < 200 nM in assay [2], < 398 nM at Tolloid-like protein 1 and < 794 nM at Tolloid-like protein 2.
For the molecule `CCCCC[C@@H](C(=O)NCNC(=O)c1ccc(-c2cccc(/C(N)=N/O)c2)o1)[C@@H](CC)N(O)C=O`, the IC50 was < 126 nM in assay [1], < 200 nM in assay [2], < 398 nM on Tolloid-like protein 1 and < 794 nM on Tolloid-like protein 2.
On to `CCCCC[C@H](CN(O)C=O)C(=O)NCNC(=O)c1ccc(-c2ccc(C(=O)OC)cc2)o1`, for which the IC50 in assay [1] is < 126 nM; in assay [2], < 200 nM; on Tolloid-like protein 1, < 398 nM; on Tolloid-like protein 2, < 794 nM.
For `CCCCC[C@H](CN(O)C=O)C(=O)NCNC(=O)c1ccc(-c2ccc(C)c(C(=O)O)c2)o1`, in that order: < 126 nM, < 200 nM, < 398 nM and < 794 nM.
The matching figures for `CCCCC[C@@H](C(=O)NCNC(=O)c1ccc(-c2ccc(C)c(C(=O)O)c2)o1)[C@@H](CC)N(O)C=O`: < 126 nM, < 200 nM, < 398 nM and < 794 nM.
The matching figures for `CCCCC[C@H](CN(O)C=O)C(=O)NCNC(=O)c1ccc(-c2cccc(C(=O)NC)c2)o1`: < 126 nM, < 200 nM, < 398 nM and < 794 nM.
On to `CCOc1cc(C(=O)O)cc(-c2ccc(C(=O)NCNC(=O)CCN(O)C=O)o2)c1`, for which the values for the IC50 (in assay [1]; in assay [2]; on Tolloid-like protein 1) were < 126 nM, < 200 nM and < 398 nM, respectively.
With `CCCCC[C@@H](C(=O)NCNC(=O)c1ccc(-c2ccccc2)o1)[C@@H](CO)N(O)C=O`, the IC50 is < 126 nM in assay [1], < 200 nM in assay [2], < 398 nM at Tolloid-like protein 1 and < 794 nM on Tolloid-like protein 2.
The matching figures for `CCCCC[C@H](CN(O)C=O)C(=O)NCNC(=O)c1ccc(-c2cccc(C#N)c2)o1`: < 126 nM, < 200 nM, < 398 nM and < 794 nM.
For `O=CN(O)C[C@@H](CC1CCCC1)C(=O)NCNC(=O)c1ccc(-c2ccccc2)o1`, in that order: < 126 nM, < 200 nM, < 398 nM and < 794 nM.
For `CCCCC[C@H](CN(O)C=O)C(=O)NCNC(=O)c1ccc(-c2cccc(S(=O)(=O)N(C)C)c2)o1`, in that order: < 126 nM, < 200 nM, < 398 nM and < 794 nM.
On to `CCCCC[C@@H](C(=O)NCNC(=O)c1ccc(-c2ccc(OC)c(C(=O)O)c2)o1)[C@@H](CC)N(O)C=O`, for which the concentration for half-maximal inhibition (IC50) is < 126 nM in assay [1], < 200 nM in assay [2], < 398 nM at Tolloid-like protein 1 and < 794 nM at Tolloid-like protein 2.
The matching figures for `CCCCC[C@H](CN(O)C=O)C(=O)NCNC(=O)c1ccc(-c2cccc(C(=O)OC(C)(C)C)c2)o1`: < 126 nM, < 200 nM, < 398 nM and < 794 nM.
With `CCCCC[C@H](CN(O)C=O)C(=O)NCNC(=O)c1ccc(-c2cccc(P(C)(=O)OCC)c2)o1` (some centres undefined), the IC50 in assay [1] is < 126 nM; in assay [2], < 200 nM; on Tolloid-like protein 1, < 398 nM; on Tolloid-like protein 2, < 794 nM.
For `CCCCC[C@H](CN(O)C=O)C(=O)NCNC(=O)c1ccc(-c2ccc(OC)c(C(=O)O)c2)o1`, in that order: < 126 nM, < 200 nM, < 398 nM and < 794 nM.
The matching figures for `CS(=O)(=O)c1cccc(-c2ccc(C(=O)NCNC(=O)[C@H](CCc3ccccc3)CN(O)C=O)o2)c1`: < 126 nM, < 200 nM, < 398 nM and < 794 nM.
The matching figures for `CCCCC[C@@H](C(=O)NCNC(=O)c1ccc(-c2cccc(OCCC)c2)o1)[C@@H](CC)N(O)C=O`: < 126 nM, < 200 nM, < 398 nM and < 794 nM.
As to `CCCCC[C@H](CN(O)C=O)C(=O)NCNC(=O)c1ccc(-c2ccccc2OC)o1`, the IC50 in assay [1] is < 126 nM; in assay [2], < 200 nM; at Tolloid-like protein 1, < 398 nM; on Tolloid-like protein 2, < 794 nM.
`CCCCC[C@@H](C(=O)NCNC(=O)C1CCC(c2ccccc2)O1)[C@@H](CC)N(O)C=O` (some centres undefined): the IC50 was < 126 nM in assay [1], < 200 nM in assay [2], < 398 nM at Tolloid-like protein 1 and < 794 nM at Tolloid-like protein 2.
For `CCCCC[C@H](CN(O)C=O)C(=O)NCNC(=O)c1ccc(-c2ccccc2O)o1`, in that order: < 126 nM, < 200 nM, < 398 nM and < 794 nM.
On to `CCCCC[C@H](CN(O)C=O)C(=O)NCNC(=O)c1ccc(-c2ccccc2C(=O)O)o1`, for which the 50% inhibitory concentration (IC50) in assay [1] was < 126 nM; in assay [2] it was < 200 nM; at Tolloid-like protein 1, < 398 nM; on Tolloid-like protein 2, < 794 nM.
The matching figures for `CCCCC[C@H](CN(O)C=O)C(=O)NCNC(=O)c1ccc(-c2ccc(F)c(OC)c2)o1`: < 126 nM, < 200 nM, < 398 nM and < 794 nM.
On to `CCCCC[C@H](CN(O)C=O)C(=O)NCNC(=O)c1ccc(-c2cccc(P(=O)(OC)OC)c2)o1`, for which the concentration for half-maximal inhibition (IC50) in assay [1] was < 126 nM; in assay [2], < 200 nM; at Tolloid-like protein 1, < 398 nM; on Tolloid-like protein 2, < 794 nM.
The matching figures for `CCCCC[C@H](CN(O)C=O)C(=O)NCNC(=O)c1ccc(-c2ccccc2C(=O)OC)o1`: < 126 nM, < 200 nM, < 398 nM and < 794 nM.

As a reminder, the pIC50 is −log10 of the IC50, conventionally taken in molar units. Low readings indicate a high IC50, high ones a low IC50. In general, IC50 refers to the concentration that gives 50% inhibition.

(Values after ChEMBL document CHEMBL4476867, “Hydroxy formamide derivatives and their use” (2016).)
